EC50 data for six molecules are collected here from patent US20240217963A1, “RECEPTOR-INTERACTING PROTEIN 1 INHIBITORS, PREPARATIONS, AND USES THEREOF” (SIRONAX LTD., priority 2021, published 2024).

Molecules are shown by their SMILES.

A word on the EC50: it is the concentration needed to bring the measured effect to its halfway point.

This test has as its target T1, RIP1 (Homo sapiens, UniProt Q13546).
T1 sequence (Q13546 1-671): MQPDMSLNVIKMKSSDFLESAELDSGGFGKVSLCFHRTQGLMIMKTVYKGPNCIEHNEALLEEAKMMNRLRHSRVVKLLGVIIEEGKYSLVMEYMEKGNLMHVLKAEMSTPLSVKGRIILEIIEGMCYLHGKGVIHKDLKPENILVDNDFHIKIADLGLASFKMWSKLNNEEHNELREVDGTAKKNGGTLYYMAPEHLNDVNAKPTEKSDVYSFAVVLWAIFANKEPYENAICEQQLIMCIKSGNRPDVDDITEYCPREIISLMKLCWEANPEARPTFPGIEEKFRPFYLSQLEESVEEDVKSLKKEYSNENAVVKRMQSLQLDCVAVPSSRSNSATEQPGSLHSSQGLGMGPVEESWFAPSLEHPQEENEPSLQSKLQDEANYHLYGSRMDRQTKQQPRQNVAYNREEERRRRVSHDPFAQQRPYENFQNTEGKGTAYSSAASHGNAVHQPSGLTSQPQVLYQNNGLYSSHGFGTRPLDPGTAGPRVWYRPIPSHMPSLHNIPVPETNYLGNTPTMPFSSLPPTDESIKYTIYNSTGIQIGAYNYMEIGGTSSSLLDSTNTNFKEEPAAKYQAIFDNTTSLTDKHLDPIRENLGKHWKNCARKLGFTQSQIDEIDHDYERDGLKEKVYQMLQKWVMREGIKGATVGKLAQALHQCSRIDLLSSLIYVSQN
The test is described as follows: Cellular RIP1 inhibitory activity: HT-29 necroptosis (TNFα/SMAC mimetic/zVAD-FMK) CellTiter-Glo viability assay. The test is classed as cell-based. Conditions: HT-29 cells, TNF-α 10 ng/ml + SMAC mimetic 6 μM + zVAD-FMK 10 μM, 20 hours, geometric mean, read-out: EC50 Values of in vitro Cellular RIP1 Inhibitory Activity. A general note: Cellular ATP, detected with luciferase, serves as a proxy for viable cell number.

Regarding `Cc1nc(C)n(-c2nc(N3CCC(C(=O)N(O)Cc4cc(F)cc(F)c4)CC3)ncc2F)n1` [Compound 1, N-(3,5-difluorobenzyl)-1-(4-(3,5-dimethyl-1H-1,2,4-triazol-1-yl)-5-fluoropyrimidin-2-yl)-N-hydroxypiperidine-4-carboxamide], the EC50 was in the range of 0.0001 to 0.1 µM.

For the molecule `Cc1cnn(C)c1-c1nc(N2CCC(C(=O)N(C)Cc3cnn(C)c3)CC2)ncc1F` [Compound 83, 1-(4-(1,4-dimethyl-1H-pyrazol-5-yl)-5-fluoropyrimidin-2-yl)-N-methyl-N-((1-methyl-1H-pyrazol-4-yl)methyl)piperidine-4-carboxamide], the EC50 is 0.1 to 1 µM.

Regarding `Cc1csc(CNC(=O)C2CCN(c3ncc(F)c(-c4c(C)cnn4C)n3)CC2)n1` [Compound 47, 1-(4-(1,4-dimethyl-1H-pyrazol-5-yl)-5-fluoropyrimidin-2-yl)-N-((4-methylthiazol-2-yl)methyl)piperidine-4-carboxamide], the EC50 lay in the range of 0.1 to 1 µM.

`[2H]C([2H])([2H])N(C(=O)C1CCN(c2nc(-c3c(C)cnn3C)ncc2F)CC1)C([2H])([2H])c1cc(F)cc(F)c1F` [Compound 73, 1-(2-(1,4-dimethyl-1H-pyrazol-5-yl)-5-fluoropyrimidin-4-yl)-N-(methyl-d3)-N-((2,3,5-trifluorophenyl)methyl-d2)piperidine-4-carboxamide]: the EC50 was in the range of 0.0001 to 0.1 µM.

`Cc1cnn(C)c1-c1nc(N2CCC(C(=O)N(O)Cc3ccnn3C)CC2)ncc1F` [Compound 27, 1-(4-(1,4-dimethyl-1H-pyrazol-5-yl)-5-fluoropyrimidin-2-yl)-N-hydroxy-N-((1-methyl-1H-pyrazol-5-yl)methyl)piperidine-4-carboxamide]: the EC50 lay in the range of 0.1 to 1 µM.

Take `Cc1cnn(C)c1-c1nc(N2CCC(C(=O)N(O)Cc3nccs3)CC2)ncc1F` [Compound 12, 1-(4-(1,4-dimethyl-1H-pyrazol-5-yl)-5-fluoropyrimidin-2-yl)-N-hydroxy-N-(thiazol-2-ylmethyl)piperidine-4-carboxamide]: the half-maximal effective concentration (EC50) fell in the range of 0.0001 to 0.1 µM.
